Values quoted from earlier work, collected in patent US5536812A, “Calcitonin analogue and use thereof” (Sanwa Kagaku Kenkyusho Co., Ltd., priority 1994, dated 1996).

How the values were obtained:
[1] = test system: Wister male rat; details: standard manufactured by Penisula Lab. Inc., Lot No. 015405
[2] = analogue of Jap. Pat. Hei 4-59795(A) / EP-A-0 464 549

Substance | Activity of the eel calcitonin standard [1] | biological activities compared with native Salmon I calcitonin [2]
eel calcitonin | 4500 IU/mg | 
salmon I calcitonin-Hse^33 -NH2 |  | substantially same with the native Salmon I calcitonin
